# Source: PubChem BioAssay AID977614 (Broad Institute, 2014)
# Activity calls are given as the source filed them.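 How the source made its calls: active means parasite count per well reduced by over 3 SD from the mean, with host cell number above 80% of untreated; inactive means the rest.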
# Tested on: L. donovani amastigotes in THP-1 macrophages, DAPI imaging, 72 h
# Assay: L. donovani intracellular amastigote growth inhibitors, imaging, THP-1 host macrophages, single concentration (AID 977614);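 further: signal is the parasite per host cell ratio from DAPI stained kinetoplasts and nuclei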
row,Structure (SMILES),AC50
1,CNC[C@@H]1OCc2cn(nn2)CCCC(=O)N([C@@H](C)CO)C[C@H]1C,> 10 µM (inactive)
2,CNC[C@@H]1OCc2cn(nn2)CCCC(=O)N([C@@H](C)CO)C[C@@H]1C,> 10 µM (inactive)
3,C[C@H](CO)N1C[C@H](C)[C@H](CN(C)C(=O)c2cc(-c3ccccc3)on2)OCc2cnnn2CCCC1=O,> 10 µM (inactive)
4,CCC(=O)N1[C@H](CO)[C@H]2c3ccccc3N(C(=O)Nc3ccc(Cl)cc3)C[C@H]21,> 10 µM (inactive)
5,O=C(Nc1ccccc1F)N1C[C@H]2[C@@H](c3ccccc31)[C@H](CO)N2C(=O)Cc1cccnc1,> 10 µM (inactive)
6,COc1ccccc1S(=O)(=O)N(C)C[C@H]1OCc2cn(nn2)CCCC(=O)N([C@@H](C)CO)C[C@H]1C,> 10 µM (inactive)
7,CCN(C[C@H]1[C@@H](c2ccccc2)[C@H](CO)N1C(=O)COC)S(C)(=O)=O,> 10 µM (inactive)
8,COc1ccc(C(=O)N2C[C@H]3[C@@H](c4ccccc42)[C@H](CO)N3Cc2ccccc2Cl)cc1,> 10 µM (inactive)
9,C[C@@H]1CN([C@@H](C)CO)C(=O)CCCn2nncc2CO[C@@H]1CN(C)Cc1ccccc1C(=O)O,> 10 µM (inactive)
10,C[C@H](CO)N1C[C@H](C)[C@@H](CN(C)Cc2cccc3c2OCCCO3)OCc2cnnn2CCCC1=O,> 10 µM (inactive)
11,C[C@@H]1CN([C@H](C)CO)C(=O)CCCn2nncc2CO[C@@H]1CN(C)S(=O)(=O)c1ccc(Oc2ccccc2)nc1,> 10 µM (inactive)
12,C[C@@H]1CN([C@@H](C)CO)C(=O)CCCn2nncc2CO[C@@H]1CN(C)S(=O)(=O)c1ccc(Oc2ccccc2)nc1,> 10 µM (inactive)
13,C[C@H](CO)N1C[C@H](C)[C@H](CN(C)C(=O)c2ccc(N3CCN(C)CC3)cc2)OCc2cn(nn2)CCCC1=O,> 10 µM (inactive)
14,CCS(=O)(=O)N(C)C[C@@H]1N[C@H](CO)[C@@H]1c1ccc(-c2ccccc2F)cc1,> 10 µM (inactive)
15,CC(C)NC(=O)N1[C@@H]2CNc3ccccc3[C@@H]2[C@@H]1CO,> 10 µM (inactive)
16,CN1[C@@H]2CN(C(=O)C3CCCCC3)c3ccccc3[C@@H]2[C@@H]1CO,> 10 µM (inactive)
17,CC(=O)N1[C@H](CO)[C@@H](c2ccccc2)[C@H]1CN(CC1CCC1)C(=O)CN(C)C,> 10 µM (inactive)
18,CC(=O)N1[C@H](CO)[C@H]2c3ccccc3N(C(=O)c3ccc(F)cc3)C[C@H]21,> 10 µM (inactive)
19,C[C@@H]1CN([C@H](C)CO)C(=O)CCCn2cc(nn2)CO[C@@H]1CN(C)C(=O)CCC(F)(F)F,> 10 µM (inactive)
20,Cc1noc(C)c1S(=O)(=O)N(C)C[C@H]1OCc2cn(nn2)CCCC(=O)N([C@@H](C)CO)C[C@@H]1C,> 10 µM (inactive)
21,CCC(=O)N1C[C@H]2[C@@H](c3ccccc31)[C@@H](CO)N2Cc1ccc(F)cc1,> 10 µM (inactive)
22,CCC(=O)N1[C@H](CN(CC)C(=O)c2cccc(F)c2)[C@H](c2ccccc2)[C@@H]1CO,> 10 µM (inactive)
23,C[C@H]1CN([C@@H](C)CO)C(=O)CCCn2nncc2CO[C@H]1CN(C)C(=O)Nc1ccccc1C(F)(F)F,> 10 µM (inactive)
24,C[C@H](CO)N1C[C@H](C)[C@@H](CN(C)C(=O)NC2CCCC2)OCc2cnnn2CCCC1=O,> 10 µM (inactive)
25,CC(=O)N(CC1CCC1)C[C@@H]1N[C@@H](CO)[C@H]1c1ccc(C2=CCCC2)cc1,> 10 µM (inactive)
26,CCC(=O)N1[C@H](CO)[C@H](c2ccc(C#CC(C)(C)O)cc2)[C@@H]1CN(C)C(C)=O,> 10 µM (inactive)

row,Structure (SMILES),AC50
1,COCC(=O)N1C[C@@H]2[C@H](c3ccccc31)[C@@H](CO)N2C(=O)c1ccccc1F,> 10 µM (inactive)
2,CN(C)CC(=O)N1C[C@H]2[C@@H](c3ccccc31)[C@@H](CO)N2C(=O)c1ccccn1,> 10 µM (inactive)
3,CCC(=O)N1[C@H](CO)[C@H]2c3ccccc3N(C(=O)c3cnccn3)C[C@H]21,> 10 µM (inactive)
4,C[C@@H]1CN([C@H](C)CO)C(=O)CCCn2nncc2CO[C@H]1CN(C)C(=O)c1ccc(N2CCN(C)CC2)cc1,> 10 µM (inactive)
5,O=C(CN1CCOCC1)NC[C@H]1N[C@H](CO)[C@@H]1c1ccc(-c2ccccc2)cc1,> 10 µM (inactive)
6,CCC(=O)N1[C@H](CO)[C@@H](c2ccccc2)[C@H]1CN(C)C(=O)CN1CCOCC1,> 10 µM (inactive)
7,O=C(CC(F)(F)F)N1C[C@H]2[C@@H](c3ccccc31)[C@H](CO)N2C(=O)C1CCCCC1,> 10 µM (inactive)
8,C[C@@H]1CN([C@H](C)CO)C(=O)CCCn2cc(nn2)CO[C@@H]1CN(C)C(=O)c1ccc(N2CCN(C)CC2)cc1,> 10 µM (inactive)
9,C[C@@H]1CN([C@@H](C)CO)C(=O)CCCn2nncc2CO[C@H]1CN(C)Cc1cccc2c1OCCCO2,> 10 µM (inactive)
10,COc1ccccc1S(=O)(=O)N(C)C[C@H]1OCc2cn(nn2)CCCC(=O)N([C@H](C)CO)C[C@H]1C,> 10 µM (inactive)
11,COCCNC[C@H]1[C@H](c2ccccc2)[C@H](CO)N1c1nc(C)c(C)s1,> 10 µM (inactive)
12,O=S(=O)(c1ccccc1)N1[C@H](CO)[C@@H]2c3ccccc3NC[C@@H]21,> 10 µM (inactive)
13,CNC[C@@H]1OCc2cn(nn2)CCCC(=O)N([C@H](C)CO)C[C@@H]1C,> 10 µM (inactive)
14,C[C@H](CO)N1C[C@H](C)[C@@H](CN(C)Cc2ccc3cccnc3c2)OCc2cnnn2CCCC1=O,> 10 µM (inactive)
15,CN(C[C@@H]1[C@@H](c2ccccc2)[C@H](CO)N1CC1CC1)C(=O)c1ccc(F)cc1,> 10 µM (inactive)
16,CCCNC(=O)N(C)C[C@@H]1[C@@H](c2ccccc2)[C@H](CO)N1C(=O)c1ccccc1,> 10 µM (inactive)
17,C[C@H](CO)N1C[C@H](C)[C@@H](CN(C)CC2CCCCC2)OCc2cnnn2CCCC1=O,> 10 µM (inactive)
18,CCC(=O)N1[C@H](CO)[C@H](c2ccc(-c3cccc(OC)c3)cc2)[C@@H]1CNC(C)=O,> 10 µM (inactive)
19,CCCC(=O)N1C[C@@H]2[C@H](c3ccccc31)[C@H](CO)N2C(=O)Nc1ccc(F)cc1,> 10 µM (inactive)
20,C[C@H]1CN([C@@H](C)CO)C(=O)CCCn2cc(nn2)CO[C@@H]1CN(C)S(=O)(=O)c1ccc(-n2cccn2)cc1,> 10 µM (inactive)
21,CCN(C[C@H]1[C@H](c2ccccc2)[C@@H](CO)N1CC1CC1)C(=O)c1ccccn1,> 10 µM (inactive)
22,O=C(Cc1cccnc1)N1[C@H](CNCC2CCC2)[C@H](c2ccccc2)[C@@H]1CO,> 10 µM (inactive)
23,CN(C[C@H]1N[C@@H](CO)[C@H]1c1ccc(-c2ccc(F)cc2)cc1)C(=O)C1CCC1,> 10 µM (inactive)
24,O=C(NC[C@@H]1[C@@H](c2ccccc2)[C@H](CO)N1C(=O)C1CCC1)NC1CCCC1,> 10 µM (inactive)
25,C[C@@H]1CN([C@H](C)CO)C(=O)CCCn2cc(nn2)CO[C@H]1CN(C)S(=O)(=O)c1ccc(-n2cccn2)cc1,> 10 µM (inactive)
26,COc1ccccc1NC(=O)N1C[C@@H]2[C@H](c3ccccc31)[C@H](CO)N2Cc1ccc2c(c1)OCO2,> 10 µM (inactive)

row,Structure (SMILES),AC50
1,C[C@H](CO)N1C[C@H](C)[C@H](CN(C)C(=O)CCC(F)(F)F)OCc2cn(nn2)CCCC1=O,> 10 µM (inactive)
2,CCCNC(=O)N1C[C@@H]2[C@H](c3ccccc31)[C@H](CO)N2C(=O)CN1CCOCC1,> 10 µM (inactive)
3,O=C(c1ccncc1)N1C[C@@H]2[C@H](c3ccccc31)[C@H](CO)N2Cc1ccccc1F,> 10 µM (inactive)
4,C[C@H](CO)N1C[C@H](C)[C@@H](CN(C)C(=O)c2cc(-c3ccccc3)on2)OCc2cnnn2CCCC1=O,> 10 µM (inactive)
5,COCC(=O)NC[C@H]1[C@@H](c2ccccc2)[C@@H](CO)N1C(=O)c1ccccc1,> 10 µM (inactive)
6,C[C@H]1CN([C@@H](C)CO)C(=O)CCCn2nncc2CO[C@H]1CN(C)Cc1ccc2c(c1)OCCN2C,> 10 µM (inactive)
7,O=S(=O)(c1ccc(F)cc1)N1C[C@H]2[C@@H](c3ccccc31)[C@H](CO)N2Cc1ccccc1Cl,> 10 µM (inactive)
8,O=C(CC1CC1)NC[C@H]1N[C@H](CO)[C@@H]1c1ccc(-c2ccc(F)cc2)cc1,> 10 µM (inactive)
9,O=C(c1ccccc1F)N1C[C@H]2[C@@H](c3ccccc31)[C@@H](CO)N2C(=O)Nc1ccccc1,> 10 µM (inactive)
10,COc1ccc(NC(=O)N(C)C[C@H]2OCc3cnnn3CCCC(=O)N([C@@H](C)CO)C[C@H]2C)c(OC)c1,> 10 µM (inactive)
11,C[C@H]1CN([C@@H](C)CO)C(=O)CCCn2nncc2CO[C@@H]1CN(C)C(=O)Nc1ccc2c(c1)OCCO2,> 10 µM (inactive)
12,CC(=O)NC[C@@H]1[C@@H](c2ccc(-c3cccnc3)cc2)[C@@H](CO)N1C(=O)CC1CC1,> 10 µM (inactive)
13,COCC(=O)N(C[C@H]1[C@H](c2ccccc2)[C@@H](CO)N1C(=O)NC(C)C)C(C)C,> 10 µM (inactive)
14,Cc1noc(C)c1NC(=O)N(C)C[C@@H]1OCc2cn(nn2)CCCC(=O)N([C@@H](C)CO)C[C@H]1C,> 10 µM (inactive)
15,CC(=O)N1[C@@H](CO)[C@@H](c2ccccc2)[C@@H]1CN(CC(C)C)C(=O)c1ccccn1,> 10 µM (inactive)
16,CC(=O)N1[C@H](CO)[C@H](c2ccccc2)[C@H]1CN(CC1CCC1)C(=O)CN(C)C,> 10 µM (inactive)
17,O=C(NC[C@H]1[C@@H](c2ccccc2)[C@@H](CO)N1C(=O)C1CCC1)NC1CCCC1,> 10 µM (inactive)
18,COc1ccc(CN(C)C[C@@H]2OCc3cnnn3CCCC(=O)N([C@H](C)CO)C[C@H]2C)cc1,> 10 µM (inactive)
19,COc1ccc(NC(=O)N(C)C[C@@H]2OCc3cnnn3CCCC(=O)N([C@@H](C)CO)C[C@H]2C)c(OC)c1,> 10 µM (inactive)
20,CNC[C@H]1OCc2cnnn2CCCC(=O)N([C@H](C)CO)C[C@@H]1C,> 10 µM (inactive)
21,Cc1noc(C)c1NC(=O)N(C)C[C@H]1OCc2cn(nn2)CCCC(=O)N([C@@H](C)CO)C[C@@H]1C,> 10 µM (inactive)
22,C[C@H]1CN([C@@H](C)CO)C(=O)CCCn2cc(nn2)CO[C@H]1CN(C)S(=O)(=O)c1cccc(C#N)c1,> 10 µM (inactive)
23,C[C@H]1CN([C@@H](C)CO)C(=O)CCCn2nncc2CO[C@H]1CN(C)S(=O)(=O)c1cn(C)cn1,> 10 µM (inactive)
24,CC(C)NC(=O)N1[C@@H]2CN(C)c3ccccc3[C@@H]2[C@@H]1CO,> 10 µM (inactive)
